This note sets out measurements from patent US10202375B2, “N-pyridinyl acetamide derivatives as Wnt signalling pathway inhibitors” (Redx Pharma PLC, priority 2014, dated 2019).

This test relates to Wnt pathway (L-Wnt cells producing murine Wnt-3a; Leading Light Wnt Reporter Cells). In words: Dual-Cell β-Catenin Reporter Assay. Format: cell-based, Mouse. Conditions: luciferase signal reduced to 50% of DMSO control. How it is done:
Dual-Cell β-Catenin Reporter Assay
Mouse L cells transfected to constitutively produce biologically active murine Wnt-3a, referred to as L-Wnt cells, were purchased from the American Type Culture Collection, ATCC, Manassas, Va. (ATCC). These cells were cultured in DMEM supplemented with 10% FCS (Gibco/Invitrogen, Carlsbad, Calif.), 1% geneticin and 1% sodium pyruvate (Sigma) at 37° C. with 5% CO2. The cells were seeded into 96 well plates and treated with serial dilutions of compound diluted to 0.1% DMSO concentration. After 24 hours, cell supernatants were transferred to a 96 well plate previously seeded with Leading Light® Wnt Reporter Cells, stably transfected with a luciferase gene under control of Wnt pathway response elements. After a further 24 hours, cells are treated with One-glo luciferase assay system (Promega, Madison, Wis.) and the luminescent signal read by envision.
On the technique in general: In a reporter assay the amount or activity of a reporter protein is the signal.

In the case of `CN1CCN(c2ccnc3c2ccn3CC(=O)Nc2ccc(-c3cnccn3)cn2)CC1` [compound 28, 2-[4-(4-methylpiperazin-1-yl)pyrrolo[2,3-b]pyridin-1-yl]-N-(5-pyrazin-2-yl-2-pyridyl)acetamide], the half-maximal inhibitory concentration (IC50) (category symbols) is > 5 nM. Under “Mus musculus, category symbols”, `Cn1nccc1-c1nccc2c1ccn2CC(=O)Nc1ccc(-c2cnccn2)cn1` [compound 4, 2-[4-(2-methylpyrazol-3-yl)pyrrolo[3,2-c]pyridin-1-yl]-N-(5-pyrazin-2-yl-2-pyridyl)acetamide] gave an IC50 of 1 to 5 nM.

For the compound `Cc1cc(-c2nc(Cl)nc3c2ccn3CC(=O)Nc2ccc(-c3cnccn3)cn2)ccn1` [compound 12, 2-[2-chloro-4-(2-methyl-4-pyridyl)pyrrolo[2,3-d]pyrimidin-7-yl]-N-(5-pyrazin-2-yl-2-pyridyl)acetamide], the IC50 (Mus musculus, category symbols) is < 1 nM.

Take `Cc1cc(-c2c(F)cnc3c2ccn3CC(=O)Nc2ccc(-c3cnccn3)cn2)ccn1` [ID No. 2, 2-[5-fluoro-4-(2-methyl-4-pyridyl)pyrrolo[2,3-b]pyridin-1-yl]-N-(5-pyrazin-2-yl-2-pyridyl)acetamide]: where the note is “Mus musculus, category symbols”, the IC50 is < 1 nM. Take `Cc1cc(-c2ccnc3c2ccn3CC(=O)Nc2ccc(-c3cnccn3)nc2)ccn1` [ID No. 17, 2-[4-(2-methyl-4-pyridyl)pyrrolo[2,3-b]pyridin-1-yl]-N-(6-pyrazin-2-yl-3-pyridyl)acetamide]: the IC50 (Mus musculus, category symbols) is < 1 nM.

As to `Cc1cc(-c2ncnc3c2ccn3CC(=O)Nc2ccc(-c3cnccn3)nc2)ccn1` [compound 16, 2-[4-(2-methyl-4-pyridyl)pyrrolo[2,3-d]pyrimidin-7-yl]-N-(6-pyrazin-2-yl-3-pyridyl)acetamide], for the setting “Mus musculus, category symbols”, the IC50 is > 5 nM. In the case of `Cc1cc(-c2ncnc3c2ncn3CC(=O)Nc2ccc(-c3cnccn3)cn2)ccn1` [compound 19, 2-[6-(2-methyl-4-pyridyl)purin-9-yl]-N-(5-pyrazin-2-yl-2-pyridyl)acetamide], the IC50 (category symbols) is > 5 nM. `Cc1cc(-c2ncnc3c2cnn3CC(=O)Nc2ccc(-c3cnccn3)nc2)ccn1` [compound 14, 2-[4-(2-methyl-4-pyridyl)pyrazolo[3,4-d]pyrimidin-1-yl]-N-(6-pyrazin-2-yl-3-pyridyl)acetamide]: under “Mus musculus, category symbols”, the IC50 is 1 to 5 nM. Take `Cc1cc(-c2nccc3c2ccn3CC(=O)Nc2ccc(-c3cnccn3)cn2)ccn1` [compound 23, 2-[4-(2-methyl-4-pyridyl)pyrrolo[3,2-c]pyridin-1-yl]-N-(5-pyrazin-2-yl-2-pyridyl)acetamide]: the IC50 (Mus musculus, category symbols) is < 1 nM and inhibition (Mus musculus, specific values) was half-maximal at 0.43 nM (IC50). Take `Cc1cc(-c2nc(N)nc3c2ccn3CC(=O)Nc2ccc(-c3cnccn3)cn2)ccn1` [compound 8, 2-[2-amino-4-(2-methyl-4-pyridyl)pyrrolo[2,3-d]pyrimidin-7-yl]-N-(5-pyrazin-2-yl-2-pyridyl)acetamide]: the IC50 (Mus musculus, category symbols) was < 1 nM. `Cn1nccc1-c1ncnc2c1ccn2CC(=O)Nc1ccc(-c2cnccn2)cn1` [compound 18, 2-[4-(2-methylpyrazol-3-yl)pyrrolo[2,3-d]pyrimidin-7-yl]-N-(5-pyrazin-2-yl-2-pyridyl)acetamide]: for the setting “Mus musculus, category symbols”, the IC50 was 1 to 5 nM. Compound “2-[4-(2-methyl-4-pyridyl)imidazo[4,5-c]pyridin-1-yl]-N-(5-pyrazin-2-yl-2-pyridyl)acetamide [compound 20]” came in with an IC50 (category symbols) of 1 to 5 nM. `Cc1cc(-c2ncnc3c2cnn3CC(=O)Nc2ccc(-c3cnccn3)cn2)ccn1` [compound 22, 2-[4-(2-methyl-4-pyridyl)pyrazolo[3,4-d]pyrimidin-1-yl]-N-(5-pyrazin-2-yl-2-pyridyl)acetamide]: the IC50 (category symbols) was < 1 nM. Take `Cc1cc(-c2ncnc3c2cc(C)n3CC(=O)Nc2ccc(-c3cnccn3)cn2)ccn1` [compound 13, 2-[6-methyl-4-(2-methyl-4-pyridyl)pyrrolo[2,3-d]pyrimidin-7-yl]-N-(5-pyrazin-2-yl-2-pyridyl)acetamide]: the IC50 (Mus musculus, category symbols) is > 5 nM. Take `Cc1cc(-c2ncnc3c2cnn3CC(=O)Nc2ccc(-c3cnccn3)cn2)ccn1` [ID No. 22, 2-[4-(2-methyl-4-pyridyl)pyrazolo[3,4-d]pyrimidin-1-yl]-N-(5-pyrazin-2-yl-2-pyridyl)acetamide]: under “Mus musculus, category symbols”, the IC50 was in the range of 1 to 5 nM. For the setting “category symbols”, `Cc1cc(-c2ccnc3c2ccn3CC(=O)Nc2ccc(-c3cnccn3)nc2)ccn1` [compound 17, 2-[4-(2-methyl-4-pyridyl)pyrrolo[2,3-b]pyridin-1-yl]-N-(6-pyrazin-2-yl-3-pyridyl)acetamide] had an IC50 of 1 to 5 nM. With “2-[5-methyl-4-(2-methyl-4-pyridyl)pyrrolo[2,3-b]pyridin-1-yl]-N-(5-pyrazin-2-yl-2-pyridyl)acetamide [ID No. 1]”, the IC50 is, setting by setting: (category symbols) < 1 nM; (specific values) 0.32 nM. Consider `O=C(Cn1ccc2c(-c3ccnc(C(F)(F)F)c3)ncnc21)Nc1ccc(-c2cnccn2)cn1` [compound 21, N-(5-pyrazin-2-yl-2-pyridyl)-2-[4-[2-(trifluoromethyl)-4-pyridyl]pyrrolo[2,3-d]pyrimidin-7-yl]acetamide], for which the IC50 (Mus musculus, category symbols) is < 1 nM.

On to “2-[4-(2-methyl-4-pyridyl)pyrazolo[3,4-b]pyridin-1-yl]-N-(6-pyrazin-2-yl-3-pyridyl)acetamide [compound 15]”, for which the IC50 (category symbols) lay in the range of 1 to 5 nM. Regarding `Cn1nccc1-c1ccnc2c1cnn2CC(=O)Nc1ccc(-c2cnccn2)cn1` [compound 6, 2-[4-(2-methylpyrazol-3-yl)pyrazolo[3,4-b]pyridin-1-yl]-N-(5-pyrazin-2-yl-2-pyridyl)acetamide], the IC50 (category symbols) was > 5 nM. As for `CC1CN(c2ccnc3c2ccn3CC(=O)Nc2ccc(-c3cnccn3)cn2)CC(C)N1` (stereo not shown) [compound 29, 2-[4-(3,5-dimethylpiperazin-1-yl)pyrrolo[2,3-b]pyridin-1-yl]-N-(5-pyrazin-2-yl-2-pyridyl)acetamide], for the setting “category symbols”, the 50% inhibitory concentration (IC50) was > 5 nM. Same read-out and setting: the result for “2-[6-methyl-4-(2-methyl-4-pyridyl)pyrrolo[2,3-d]pyrimidin-7-yl]-N-(5-pyrazin-2-yl-2-pyridyl)acetamide [ID No. 13]” reads < 1 nM.

In the case of `Cc1cc(-c2cncc3c2ccn3CC(=O)Nc2ccc(-c3cnccn3)cn2)ccn1` [compound 24, 2-[4-(2-methyl-4-pyridyl)pyrrolo[2,3-c]pyridin-1-yl]-N-(5-pyrazin-2-yl-2-pyridyl)acetamide], the IC50 (Mus musculus, category symbols) was < 1 nM. With `Cn1nccc1-c1ccnc2c1ccn2CC(=O)Nc1ccc(-c2cnccn2)cn1` [compound 31, 2-[4-(2-methylpyrazol-3-yl)pyrrolo[2,3-b]pyridin-1-yl]-N-(5-pyrazin-2-yl-2-pyridyl)acetamide], the 50% inhibitory concentration (IC50) is, setting by setting: (Mus musculus, category symbols) < 1 nM; (Mus musculus, specific values) 0.89 nM.

Consider `Cc1cc(-c2ccnc3c2cnn3CC(=O)Nc2ccc(-c3cnccn3)cn2)ccn1` [compound 25, 2-[4-(2-methyl-4-pyridyl)pyrazolo[3,4-b]pyridin-1-yl]-N-(5-pyrazin-2-yl-2-pyridyl)acetamide], for which the IC50 (Mus musculus, category symbols) was < 1 nM.

As usually defined, the IC50 is the midpoint of a concentration-inhibition curve.
